# Laboratory results: US20240398825A1 (NANJING DELOVA BIOTECH CO. LTD., priority 2018, published 2024)
# How the values were obtained:
# [1] = Solubility of meloxicam in organic base or alkaline amino acid solutions (Comparative Example A4); assay type: physicochemical; details: for solubility at 24 h: 25 °C, shaking at 25° C. for 24 h, n = 3
# [2] = Solubility study of meloxicam in injectable solution; assay type: physicochemical; details: aqueous with cosolvent or surfactant or cyclodextrin; PEG 400 300 mg/mL, pH 7.7-8.0 (NaOH/citric acid)
# [3] = Solubility of meloxicam in PEG 200, PEG300 or PEG600; assay type: physicochemical; details: 25 °C, organic solvent or mixture, thermodynamic from solid, read-out: Solubility (shaking at 25° C. for 24 h)
# [4] = cited from earlier work
# [5] = cited from earlier work; remark: listed apart in the source
# physchem = details: 25 °C, water, thermodynamic from solid
compound,measurement,setting,value
"Cc1cnc(NC(=O)C2=C(O)c3ccccc3S(=O)(=O)N2C)s1 [Meloxicam, 4-hydroxy-2-methyl-N-(5-methyl-2-thiazolyl)-2H-1,2-benzothiazine-3-carboxamide-1,1-dioxide]",solubility at 24 h,"[1]; Tris solution, aqueous buffer, thermodynamic from solid, Tris 5 mg/mL",5.54 mg/mL
same,solubility at 24 h,"[1]; Tris solution, aqueous buffer, thermodynamic from solid, Tris 10 mg/mL",9.07 mg/mL
same,solubility at 24 h,"[1]; Tris solution, aqueous buffer, thermodynamic from solid, Tris 15 mg/mL",11.4 mg/mL
same,solubility at 24 h,"[1]; Tris solution, aqueous buffer, thermodynamic from solid, Tris 20 mg/mL",14.3 mg/mL
same,solubility at 24 h,"[1]; Tris solution, aqueous buffer, thermodynamic from solid, Tris 30 mg/mL",18.3 mg/mL
same,stability of the solutions in organic base or basic amino acid,[1]; after standing overnight at room temperature,Crystals were precipitated
same,solubility at 24 h,"[1]; arginine solution, aqueous buffer, thermodynamic from solid, Arginine 7 mg/mL",11.2 mg/mL
same,solubility at 24 h,"[1]; arginine solution, aqueous buffer, thermodynamic from solid, Arginine 14 mg/mL",11.6 mg/mL
same,solubility at 24 h,"[1]; arginine solution, aqueous buffer, thermodynamic from solid, Arginine 20 mg/mL",11.6 mg/mL
same,solubility at 24 h,"[1]; arginine solution, aqueous buffer, thermodynamic from solid, Arginine 30 mg/mL",12.8 mg/mL
same,solubility at 24 h,"[1]; arginine solution, aqueous buffer, thermodynamic from solid, Arginine 40 mg/mL",14.2 mg/mL
same,solubility,"[1]; high concentration organic base or basic amino acid solution, aqueous buffer, thermodynamic from solid, solubility of meloxicam in a high concentration organic base or basic amino acid, high concentration organic base or basic amino acid",≥ 10 mg/mL
same,solubility at 24 h,"[1]; lysine solution, aqueous buffer, thermodynamic from solid, Lysine 6 mg/mL",10.5 mg/mL
same,solubility at 24 h,"[1]; lysine solution, aqueous buffer, thermodynamic from solid, Lysine 19 mg/mL",29.8 mg/mL
same,solubility at 24 h,"[1]; lysine solution, aqueous buffer, thermodynamic from solid, Lysine 24 mg/mL",35.9 mg/mL
same,solubility at 24 h,"[1]; meglumine solution, aqueous buffer, thermodynamic from solid, Meglumine 5 mg/mL",8.01 mg/mL
same,solubility at 24 h,"[1]; meglumine solution, aqueous buffer, thermodynamic from solid, Meglumine 10 mg/mL",17.8 mg/mL
same,solubility at 24 h,"[1]; meglumine solution, aqueous buffer, thermodynamic from solid, Meglumine 15 mg/mL",24.6 mg/mL
same,solubility,[2],60 mg/mL
same,solubility at 24 h,[3]; Cosolvent PEG200,3.6 mg/mL
same,solubility at 24 h,[3]; Cosolvent PEG300,2.81 mg/mL
same,solubility at 24 h,[3]; Cosolvent PEG600,3.18 mg/mL
same,solubility in water,[4]; 25° C.,0.003414 mg/mL
same,"solubility in chloroform, acetone and ethanol",[4],slightly soluble
same,maximum solubility in pure PEG 400,[5]; Zaira J. Cárdenas et al.,9.2 mg/mL
same,solubility of meloxicam in pure PEG 400,[5]; found by Neelam Seeder et al.,3.763 mg/mL
same,solubility at 24 h,physchem,0.02 mg/mL
